Laboratory results taken from ChEMBL document CHEMBL1275550, “In vitro activity of doripenem, a carbapenem for the treatment of challenging infections caused by gram-negative bacteria, against recent clinical isolates from the United States” (2008).
In brackets after ≈: the same amount, converted by molar mass.

Columns and labels:
Acinetobacter [1] = test: Antimicrobial activity against imipenem susceptible Acinetobacter assessed as susceptible isolate by broth microdilution method; type: functional
Proteus mirabilis [2] = test: Antimicrobial activity against ESBL producing Proteus mirabilis assessed as susceptible isolate by broth microdilution method; type: functional
Serratia marcescens [3] = test: Antimicrobial activity against Ceftazidime susceptible Serratia marcescens assessed as resistant isolate by broth microdilution method; type: functional
Pseudomonas aeruginosa [4] = test: Antimicrobial activity against Pseudomonas aeruginosa isolated from ICU patient assessed as resistant isolate by broth microdilution method
Pseudomonas aeruginosa [5] = test: Antimicrobial activity against Ceftazidime non-susceptible Pseudomonas aeruginosa assessed as susceptible isolate by broth microdilution method; type: functional
Klebsiella pneumoniae [6] = test: Antimicrobial activity against ESBL producing Klebsiella pneumoniae assessed as intermediate isolate by broth microdilution method; type: functional
Citrobacter [7] = test: Antimicrobial activity against Citrobacter with nonderepressed AmpC beta-lactamsae assessed as susceptible isolate by broth microdilution method; type: functional
Pseudomonas aeruginosa [8] = test: Antimicrobial activity against Pseudomonas aeruginosa isolated from non-ICU patient assessed as resistant isolate by broth microdilution method
Serratia marcescens [9] = test: Antimicrobial activity against Ceftazidime non-susceptible Serratia marcescens assessed as intermediate isolate by broth microdilution method; type: functional
Pseudomonas aeruginosa [10] = test: Antimicrobial activity against Pseudomonas aeruginosa isolated from ICU patient assessed as susceptible isolate by broth microdilution method
Serratia marcescens [11] = test: Antimicrobial activity against Ceftazidime susceptible Serratia marcescens assessed as susceptible isolate by broth microdilution method; type: functional
Enterobacteriaceae [12] = test: Antimicrobial activity against Ceftazidime non-susceptible Enterobacteriaceae by broth microdilution method; type: functional
Pseudomonas aeruginosa [13] = test: Antimicrobial activity against Pseudomonas aeruginosa isolated from non-ICU patient by broth microdilution method
Pseudomonas aeruginosa [14] = test: Antimicrobial activity against imipenem non-susceptible Pseudomonas aeruginosa assessed as resistant isolate by broth microdilution method; type: functional
Enterobacter cloacae [15] = test: Antimicrobial activity against Enterobacter cloacae with derepressed AmpC beta-lactamsae assessed as intermediate isolate by broth microdilution method; type: functional
Pseudomonas aeruginosa [16] = test: Antimicrobial activity against Pseudomonas aeruginosa isolated from non-ICU patient by broth microdilution method; type: functional
Klebsiella pneumoniae [17] = test: Antimicrobial activity against ESBL producing Klebsiella pneumoniae assessed as susceptible isolate by broth microdilution method; type: functional
Citrobacter [18] = test: Antimicrobial activity against Citrobacter with nonderepressed AmpC beta-lactamsae assessed as resistant isolate by broth microdilution method; type: functional
Citrobacter [19] = test: Antimicrobial activity against Citrobacter with derepressed AmpC beta-lactamsae assessed as intermediate isolate by broth microdilution method; type: functional
Enterobacter cloacae [20] = test: Antimicrobial activity against Enterobacter cloacae with nonderepressed AmpC beta-lactamsae assessed as susceptible isolate by broth microdilution method; type: functional
Pseudomonas aeruginosa [21] = test: Antimicrobial activity against imipenem non-susceptible Pseudomonas aeruginosa by broth microdilution method; type: functional
Pseudomonas aeruginosa [22] = test: Antimicrobial activity against Ceftazidime non-susceptible Pseudomonas aeruginosa assessed as intermediate isolate by broth microdilution method; type: functional
Acinetobacter [23] = test: Antimicrobial activity against imipenem non-susceptible Acinetobacter assessed as intermediate isolate by broth microdilution method; type: functional
Pseudomonas aeruginosa [24] = test: Antimicrobial activity against Ceftazidime susceptible Pseudomonas aeruginosa assessed as susceptible isolate by broth microdilution method; type: functional
Pseudomonas aeruginosa [25] = test: Antimicrobial activity against Ceftazidime susceptible Pseudomonas aeruginosa by broth microdilution method; type: functional
Serratia marcescens [26] = test: Antimicrobial activity against Ceftazidime non-susceptible Serratia marcescens assessed as susceptible isolate by broth microdilution method; type: functional
Klebsiella pneumoniae [27] = test: Antimicrobial activity against ESBL producing Klebsiella pneumoniae by broth microdilution method; type: functional
Proteus mirabilis [28] = test: Antimicrobial activity against Non-ESBL Proteus mirabilis assessed as susceptible isolate by broth microdilution method; type: functional
Pseudomonas aeruginosa [29] = test: Antimicrobial activity against imipenem susceptible Pseudomonas aeruginosa assessed as intermediate isolate by broth microdilution method; type: functional
Enterobacteriaceae [30] = test: Antimicrobial activity against ceftazidime-susceptible Enterobacteriaceae by broth microdilution method; type: functional
Proteus mirabilis [31] = test: Antimicrobial activity against Non-ESBL Proteus mirabilis assessed as resistant isolate by broth microdilution method; type: functional
Enterobacteriaceae [32] = test: Antimicrobial activity against ceftazidime-susceptible Enterobacteriaceae assessed as intermediate isolate by broth microdilution method; type: functional
Klebsiella pneumoniae [33] = test: Antimicrobial activity against Non-ESBL Klebsiella pneumoniae assessed as susceptible isolate by broth microdilution method; type: functional
Enterobacteriaceae [34] = test: Antimicrobial activity against Ceftazidime non-susceptible Enterobacteriaceae assessed as resistant isolate by broth microdilution method; type: functional
Citrobacter [35] = test: Antimicrobial activity against Citrobacter with derepressed AmpC beta-lactamsae assessed as susceptible isolate by broth microdilution method; type: functional
Pseudomonas aeruginosa [36] = test: Antimicrobial activity against imipenem susceptible Pseudomonas aeruginosa assessed as susceptible isolate by broth microdilution method; type: functional
Enterobacteriaceae [37] = test: Antimicrobial activity against Enterobacteriaceae assessed as susceptible isolate by broth microdilution method; type: functional
Klebsiella pneumoniae [38] = test: Antimicrobial activity against Klebsiella pneumoniae by broth microdilution method; type: functional
Streptococcus pneumoniae = test: Antimicrobial activity against penicillin-resistant Streptococcus pneumoniae by broth microdilution method; type: functional; settings: Streptococcus pneumoniae
Pseudomonas aeruginosa [39] = test: Antimicrobial activity against Pseudomonas aeruginosa by broth microdilution method; type: functional
Enterobacter cloacae [40] = test: Antimicrobial activity against Enterobacter cloacae by broth microdilution method; type: functional
Citrobacter [41] = test: Antimicrobial activity against Citrobacter assessed as susceptible isolate by broth microdilution method; type: functional
Citrobacter [42] = test: Antimicrobial activity against Citrobacter by broth microdilution method; type: functional
Acinetobacter [43] = test: Antimicrobial activity against Acinetobacter by broth microdilution method; type: functional
Proteus mirabilis [44] = test: Antimicrobial activity against Proteus mirabilis by broth microdilution method; type: functional
Escherichia coli = test: Antimicrobial activity against Escherichia coli assessed as susceptible isolate by broth microdilution method; type: functional

SMILES: CC(C)(O/N=C(\C(=O)N[C@@H]1C(=O)N2C(C(=O)[O-])=C(C[n+]3ccccc3)CS[C@H]12)c1csc(N)n1)C(=O)O [CEFTAZIDIME]
- Activity (Acinetobacter [1]): 66.8%
- Activity (Proteus mirabilis [2]): 50%
- Activity (Serratia marcescens [3]): 0%
- Activity (Pseudomonas aeruginosa [4]): 14.4%
- Activity (Pseudomonas aeruginosa [5]): 0%
- Activity (Klebsiella pneumoniae [6]): 0%
- Activity (Citrobacter [7]): 98.3%
- Activity (Pseudomonas aeruginosa [8]): 10.4%
- Activity (Serratia marcescens [9]): 0%
- Activity (Pseudomonas aeruginosa [10]): 79.9%
- Activity (Serratia marcescens [11]): 100%
- MIC50 (Enterobacteriaceae [12]): > 32 µg/mL
- MIC90 (Enterobacteriaceae [12]): > 32 µg/mL
- Activity (Pseudomonas aeruginosa [13]): 87.3%
- Activity (Pseudomonas aeruginosa [14]): 18.4%
- Activity (Enterobacter cloacae [15]): 1.9%
- MIC50 (Pseudomonas aeruginosa [16]): 2 µg/mL (≈ 3.66 µM)
- MIC90 (Pseudomonas aeruginosa [16]): 32 µg/mL (≈ 58.5 µM)
- Activity (Klebsiella pneumoniae [17]): 4.5%
- Activity (Citrobacter [18]): 1.3%
- Activity (Citrobacter [19]): 0%
- Activity (Enterobacter cloacae [20]): 93.6%
- MIC50 (Pseudomonas aeruginosa [21]): 4 µg/mL (≈ 7.32 µM)
- MIC90 (Pseudomonas aeruginosa [21]): > 32 µg/mL
- Activity (Pseudomonas aeruginosa [22]): 23.6%
- Activity (Acinetobacter [23]): 0%
- Activity (Pseudomonas aeruginosa [24]): 100%
- MIC50 (Pseudomonas aeruginosa [25]): 2 µg/mL (≈ 3.66 µM)
- MIC90 (Pseudomonas aeruginosa [25]): 4 µg/mL (≈ 7.32 µM)
- Activity (Serratia marcescens [26]): 0%
- MIC50 (Klebsiella pneumoniae [27]): > 32 µg/mL
- MIC90 (Klebsiella pneumoniae [27]): > 32 µg/mL
- Activity (Proteus mirabilis [28]): 99.5%
- Activity (Pseudomonas aeruginosa [29]): 2.2%
- MIC50 (Enterobacteriaceae [30]): 0.12 µg/mL (≈ 0.22 µM)
- MIC90 (Enterobacteriaceae [30]): 0.5 µg/mL (≈ 0.915 µM)
- Activity (Proteus mirabilis [31]): 0.3%
- Activity (Enterobacteriaceae [32]): 0%
- Activity (Klebsiella pneumoniae [33]): 99.2%
- Activity (Enterobacteriaceae [34]): 92.4%
- Activity (Citrobacter [35]): 0%
- Activity (Pseudomonas aeruginosa [36]): 90.9%

SMILES: C[C@@H](O)[C@H]1C(=O)N2C(C(=O)O)=C(S[C@@H]3CN[C@H](CNS(N)(=O)=O)C3)[C@H](C)[C@H]12 [DORIPENEM]
- Activity (Acinetobacter [1]): 89.1%
- Activity (Proteus mirabilis [2]): 100%
- Activity (Pseudomonas aeruginosa [5]): 60.9%
- Activity (Citrobacter [7]): 99.8%
- Activity (Pseudomonas aeruginosa [10]): 78.4%
- Activity (Serratia marcescens [11]): 98.6%
- Activity (Enterobacteriaceae [37]): 99.5%
- MIC50 (Enterobacteriaceae [12]): 0.06 µg/mL (≈ 0.143 µM)
- MIC90 (Enterobacteriaceae [12]): 0.25 µg/mL (≈ 0.595 µM)
- Activity (Pseudomonas aeruginosa [13]): 87.9%
- MIC50 (Klebsiella pneumoniae [38]): 0.03 µg/mL (≈ 0.0713 µM)
- MIC90 (Klebsiella pneumoniae [38]): 0.06 µg/mL (≈ 0.143 µM)
- MIC50 (Pseudomonas aeruginosa [16]): 0.25 µg/mL (≈ 0.595 µM)
- MIC90 (Pseudomonas aeruginosa [16]): 4 µg/mL (≈ 9.51 µM)
- Activity (Klebsiella pneumoniae [17]): 95.5%
- MIC50 (Streptococcus pneumoniae; read-out: MIC50): 0.5 µg/mL (≈ 1.19 µM)
- MIC90 (Streptococcus pneumoniae; read-out: MIC90): 1 µg/mL (≈ 2.38 µM)
- Activity (Enterobacter cloacae [20]): 99.3%
- MIC50 (Pseudomonas aeruginosa [39]): 0.25 µg/mL (≈ 0.595 µM)
- MIC90 (Pseudomonas aeruginosa [39]): 4 µg/mL (≈ 9.51 µM)
- MIC50 (Pseudomonas aeruginosa [21]): 2 µg/mL (≈ 4.76 µM)
- MIC90 (Pseudomonas aeruginosa [21]): 16 µg/mL (≈ 38 µM)
- MIC50 (Enterobacter cloacae [40]): 0.03 µg/mL (≈ 0.0713 µM)
- MIC90 (Enterobacter cloacae [40]): 0.12 µg/mL (≈ 0.285 µM)
- Activity (Citrobacter [41]): 99.8%
- Activity (Pseudomonas aeruginosa [24]): 92.3%
- MIC50 (Citrobacter [42]): 0.03 µg/mL (≈ 0.0713 µM)
- MIC90 (Citrobacter [42]): 0.06 µg/mL (≈ 0.143 µM)
- MIC50 (Pseudomonas aeruginosa [25]): 0.25 µg/mL (≈ 0.595 µM)
- MIC90 (Pseudomonas aeruginosa [25]): 2 µg/mL (≈ 4.76 µM)
- Activity (Serratia marcescens [26]): 100%
- MIC50 (Klebsiella pneumoniae [27]): 0.03 µg/mL (≈ 0.0713 µM)
- MIC90 (Klebsiella pneumoniae [27]): 0.12 µg/mL (≈ 0.285 µM)
- MIC50 (Acinetobacter [43]): 0.5 µg/mL (≈ 1.19 µM)
- MIC90 (Acinetobacter [43]): 32 µg/mL (≈ 76.1 µM)
- Activity (Proteus mirabilis [28]): 98.9%
- MIC50 (Proteus mirabilis [44]): 0.12 µg/mL (≈ 0.285 µM)
- MIC90 (Proteus mirabilis [44]): 0.5 µg/mL (≈ 1.19 µM)
- MIC50 (Enterobacteriaceae [30]): 0.03 µg/mL (≈ 0.0713 µM)
- MIC90 (Enterobacteriaceae [30]): 0.12 µg/mL (≈ 0.285 µM)
- Activity (Klebsiella pneumoniae [33]): 99.7%
- Activity (Escherichia coli): 99.8%
- Activity (Citrobacter [35]): 100%
- Activity (Pseudomonas aeruginosa [36]): 98.5%
